Values quoted from earlier work in patent publication US20090214598A1, “Monovalent and polyvalent synthetic polysaccharide antigens for immunological intervention in disease” (Eli Lilly and Company, priority 2005, published 2009).

Settings: literature reports (U.S. Pat. No. 4,395,399; Chedid 1983)

For `CC(=O)N[C@H]1C(O)O[C@H](CO)[C@@H](O)[C@@H]1O[C@H](C)C(=O)N[C@@H](C)C(=O)N[C@H](CCC(=O)O)C(N)=O` (mixture of isomers) [MDP, muramyl dipeptide], the “inflammatory response as reported” value is listed as “inflammatory in nature”.
